These results are taken from ChEMBL document CHEMBL5137015, “Design, synthesis, and evaluation of a novel series of mono-indolylbenzoquinones derivatives for the potential treatment of breast cancer” (Eur J Med Chem, 2022).

For data set [1], the system named is MDA-MB-231. The data set is described as follows: Antiproliferative activity against human MDA-MB-231 cells assessed as inhibition of cell growth by MTT assay. The format is functional, cell-based. (In general: Tetrazolium dyes change colour on reduction, which living cells bring about.)
Data set [2] concerns MDA-MB-231. The data set is described as follows: Induction of apoptosis in human MDA-MB-231 cells assessed as late apoptotic cells by measuring green fluorescence at 0.01 to 1 uM by Annexin V-FITC staining based fluorescence microscopic analysis. Particulars: dose 0.01-1 µM. The format is functional, cell-based.
Data set [3] concerns MDA-MB-231. Briefly: Induction of apoptosis in human MDA-MB-231 cells assessed as increase in p53 level at 100 nM incubated for 48 hrs. The format is functional, cell-based.
For data set [4], the system named is MDA-MB-231. Briefly: Induction of apoptosis in human MDA-MB-231 cells assessed as increase in cytochrome C expression at 1 uM incubated for 24 hrs by Western blot analysis. The format is functional, cell-based. For orientation: In western blotting, separated proteins are transferred to a membrane and probed.
For data set [5], the system named is MDA-MB-231. Briefly: Induction of apoptosis in human MDA-MB-231 cells assessed as increase in caspase 3 expression at 1 uM incubated for 24 hrs by Western blot analysis. In kind it is functional, cell-based.
For data set [6], the system named is MDA-MB-231. The data set is described as follows: Induction of apoptosis in human MDA-MB-231 cells assessed as increase in Bax expression at 0.5 to 3 times of IC50 concentration by Western blot analysis. The format is functional, cell-based.
The nature of data set [7]: Acute toxicity in mouse assessed as death rate ratio at 300 mg/kg, ip measured over 14 days. The format is organism-based. The conditions noted are these: in vivo, 336 h, time 14 day.
Data set [8] is described as follows: Acute toxicity in mouse assessed as death rate ratio at 238 mg/kg, ip measured over 14 days. The conditions noted are these: in vivo, 336 h, time 14 day. In kind it is organism-based.
For another data set, the system named is Mus musculus. The data set is described as follows: Protection of Balb/c mouse spleen implanted with mouse 4T1 cells at 50 mg/kg administered intratumorally every four days for 14 days in the presence of liquid cyanoacrylate. In kind it is functional, organism-based. Particulars: route it(Intratumoral), time 14.0 day.
Data set [9] has as its system 4T1. Briefly: Antitumor activity against mouse 4T1 cells xenografted in Balb/c mouse assessed as tumor growth inhibition at 50 mg/kg administered intratumorally every four days for 14 days. The format is functional. Further details: scale not given: the % may be the effect or the level left. The conditions noted are these: route it(Intratumoral), time 14 day.
A short description of data set [10]: Toxicity in Balb/c mouse implanted with mouse 4T1 cells assessed as heart lesions at 50 mg/kg administered intratumorally every four days for 14 days by H&E staining based histopathological analysis. In kind it is organism-based. The conditions noted are these: in vivo, other, 336 h, route it(Intratumoral), time 14 day.
Data set [11] relates to 4T1. The data set is described as follows: Antitumor activity aginst mouse 4T1 cells implanted in Balb/c mouse assessed as nuclei disappearance at 50 mg/kg administered intratumorally every four days for 14 days. In kind it is functional, organism-based. Particulars: route it(Intratumoral), time 14.0 day.
Data set [12] in a line: Toxicity in Balb/c mouse xenografted with mouse 4T1 cells assessed as kidney lesions at 200 mg/kg administered topically over the tumor surface every two days for 14 days in the presence of cyanoacrylate by H&E staining based histopathological analysis. In kind it is organism-based. The conditions noted are these: in vivo, topical_or_ocular, 336 h, route top, time 14 day.

Data set [13] in a line: Toxicity in Balb/c mouse xenografted with mouse 4T1 cells assessed as lung lesions at 200 mg/kg administered topically over the tumor surface every two days for 14 days in the presence of cyanoacrylate by H&E staining based histopathological analysis. In kind it is organism-based. Particulars: in vivo, topical_or_ocular, 336 h, route top, time 14 day.
The test system of data set [14] is 4T1. The data set is described as follows: Antitumor activity against mouse 4T1 cells xenografted in Balb/c mouse assessed as shrinkage of nucleus at 200 mg/kg administered topically over the tumor surface every two days for 14 days in the presence of cyanoacrylate. Particulars: route top, time 14.0 day. In kind it is functional, organism-based.
The nature of data set [15]: Drug metabolism in Balb/c mouse spleen implanted with mouse 4T1 cells assessed as dechlorination of parent compound causing metabolite formation by LC-MS analysis. In kind it is ADME, tissue-based.
Data set [16] is described as follows: Drug metabolism in Balb/c mouse liver implanted with mouse 4T1 cells assessed as 2-methyl hydroxylation of parent compound causing metabolite formation by LC-MS analysis. In kind it is ADME, tissue-based.

One may read the IC50 as the point on the concentration scale where inhibition reaches its midpoint.

Activity calls are given as the source filed them. The rule behind the calls is not given here.

As to `Cc1[nH]c2ccccc2c1C1=C(Cl)C(=O)C(Cl)=C(N2CCOCC2)C1=O`, the IC50 in the data set on MDA-MB-231 [1] stood at 70 nM. The outcome in the data set with MDA-MB-231 [2], in the data set on MDA-MB-231 [3], in the data set on MDA-MB-231 [4], in the data set with MDA-MB-231 [5], with MDA-MB-231 [6] and with Mus musculus was Active. In addition, the result with 4T1 [11] and in the data set with 4T1 [14] was Active. Further, the Ratio in [7] is recorded as 0.33; in data set [8] it was 0.17. Further, the Activity with 4T1 [9] is given as 24.6%; in data set [10] it was “Non-Toxic”; in [12], “Non-Toxic”; in data set [13], “Non-Toxic”. Also, the Drug metabolism result in data set [15] and in data set [16] was “Metabolite_Detected” each time.
